Test results reported in EP1832586A1, “Thiazole-piperidine derivatives in treatment of diseases of liver and the pancreas” (Oridis Biomed Forschungs- und Entwicklungs GmbH, priority 2006, dated 2007).
pEC50: −log10 of the molar value.

Experiments:
Type in all cases: cell-based
[1] = system: HuH7; assay: CellTiter-Glo luminescent cell viability (proliferation) assay, HuH7; conditions: Homo sapiens, Huh-7, 48 h, inhibition of HuH7 (human hepatoma) proliferation, 48 hours incubation, 10% FCS
Description: (§1) To practically assess the impact of the thiazole-piperidine derivatives, e.g. derivatives of piperidinyl-thiazole carboxylic acid and/or piperidinyl thiazole carboxamide, in the treatment and/or prevention of diseases according to the invention, the inhibition of cell proliferation is determined by using a luminescent cell viability assay (CellTiter-Glo®; Promega, Madison, USA). The assay is based on the relation that the ATP content is directly proportional to the number of cells present in the culture. The CellTiter-Glo® assay is performed to measure the proliferation rate of human hepatoma (HuH7, PLC/PRF/5, Hep3B, SK-Hep1), human hepatoblastoma (HepG2), human colon carcinoma (CX-2), human breast cancer (SK-Br-3), human ovarian carcinoma (HeLa) and human pancreatic carcinoma (DAN-G) cell lines. […] In particular, the compound according to formula (1) wherein R^1 is 4-isopropoxycarbonylphenyl, R^2 is 3-indolylmethyl, R^3 is hydrogen, R^4 is hydrogen, n is zero, A is a single bond, B is carbonyl, and wherein the residue R^1NR^3CO is connected to the carbon atom bound to nitrogen of the thiazole ring (compound no. XI in Table 1) inhibits proliferation of the human cell lines HepG2 and Hep3B with 10.8 and 3.5 µM, respectively.
(§2) To determine the inhibition of cell proliferation a luminescent cell viability assay (CellTiter-Glo®; Promega, Madison, USA) is implemented. The assay is based on the relation that the ATP content is directly proportional to the number of cells present in the culture (Technical Bulletin No. 228 "CellTiter-Glo® Luminescent Cell viability Assay", Revised 2/04. Promeg, Madison, USA). The CellTiter-Glo® assay is performed to measure the proliferation rate of human hepatoma (HuH7, PLC/PRF/5, Hep3B, SK-Hep1), human hepatoblastoma (HepG2), human colon carcinoma (CX-2), human breast cancer (SK-Br-3), human ovarian carcinoma (HeLa) and human pancreatic carcinoma (DAN-G) cell lines. 3000 viable cells (viability ≥ 90%) are seeded in opaque-walled 96-well plates and incubated for 24 hours in DMEM, supplemented with 2 mM glutamin. Cell proliferation is stimulated by addition of FCS to a final concentration of 10% (v/v). Simultaneously the compounds (see Table 1 and 2) are added in a concentration range of 0 to 20 µM. Triplicates are measured for each concentration. Cells and compounds (see Table 1 and 2) are incubated for a period of 48 hours in a volume of 140 µl cell culture medium (10% (v/v) FCS, 2 mM Glutamin, DMEM). The compounds according to the invention are dissolved in 60% to 100% (v/v) DMSO at a concentration of 2 mM. The final DMSO concentration under assay conditions never exceeds 1% (v/v). Throughout the assay cells are kept in a humidified incubator (95% rH) at 37°C and 5% CO2.
(§3) The final cell number is determined after 48 hour of incubation. Therefore 140 µl CellTiter-Glo®Reagent is added in each well. The contents are mixed on an orbital shaker for 2 minutes at room temperature. After subsequent incubation for additional 10 minutes at room temperature the luminescence signal is recorded within 30 min. EC50 values are calculated using the four-parametric Hill equation (Sigma Plot). Control values are: • 1) 10% (v/v) FCS, 2 mM glutamin, DMEM -> maximum cell number • 2) 2 mM glutamin, DMEM -> initial cell number

[2] = system: HepG2; assay: CellTiter-Glo luminescent cell viability (proliferation) assay, HepG2; conditions: HepG2 (human hepatoblastoma), 48 hours incubation, 10% FCS; read-out: inhibits proliferation
Description: (§4) To practically assess the impact of the thiazole-piperidine derivatives, e.g. derivatives of piperidinyl-thiazole carboxylic acid and/or piperidinyl thiazole carboxamide, in the treatment and/or prevention of diseases according to the invention, the inhibition of cell proliferation is determined by using a luminescent cell viability assay (CellTiter-Glo®; Promega, Madison, USA). The assay is based on the relation that the ATP content is directly proportional to the number of cells present in the culture. The CellTiter-Glo® assay is performed to measure the proliferation rate of human hepatoma (HuH7, PLC/PRF/5, Hep3B, SK-Hep1), human hepatoblastoma (HepG2), human colon carcinoma (CX-2), human breast cancer (SK-Br-3), human ovarian carcinoma (HeLa) and human pancreatic carcinoma (DAN-G) cell lines. […]
(§5) To determine the inhibition of cell proliferation a luminescent cell viability assay (CellTiter-Glo®; Promega, Madison, USA) is implemented. […] Triplicates are measured for each concentration. […]
(§6) The final cell number is determined after 48 hour of incubation. […] After subsequent incubation for additional 10 minutes at room temperature the luminescence signal is recorded within 30 min. EC50 values are calculated using the four-parametric Hill equation (Sigma Plot). […]

[3] = system: Hep3B; assay: CellTiter-Glo luminescent cell viability (proliferation) assay, Hep3B; conditions: Hep3B (human hepatoma), 48 hours incubation, 10% FCS; read-out: inhibits proliferation
Description: as §4, §5, §6

[4] = system: DAN-G; assay: CellTiter-Glo luminescent cell viability (proliferation) assay, DAN-G; conditions: DAN-G (human pancreatic carcinoma) proliferation, 48 hours incubation, 10% FCS
Description: as §1, §2, §3

[5] = system: CX-2; assay: CellTiter-Glo luminescent cell viability (proliferation) assay, CX-2; conditions: CX-2 (human colon carcinoma) proliferation, 48 hours incubation, 10% FCS
Description: as §1, §2, §3

[6] = system: HeLa; assay: CellTiter-Glo luminescent cell viability (proliferation) assay, HeLa; conditions: Hela (human ovarian carcinoma [sic]) proliferation, 48 hours incubation, 10% FCS
Description: as §1, §2, §3

[7] = system: SK-Br-3; assay: CellTiter-Glo luminescent cell viability (proliferation) assay, SK-Br-3; conditions: Sk-Br-3 (human breast cancer) proliferation, 48 hours incubation, 10% FCS
Description: as §1, §2, §3

SMILES | pEC50 [1] | pEC50 [2] | pEC50 [3] | pEC50 [4] | pEC50 [5] | pEC50 [6] | pEC50 [7]
CC(C)OC(=O)c1ccc(NC(=O)c2csc(C3CCN(C(=O)CC4C=Nc5ccccc54)CC3)n2)cc1 (stereo not drawn) [XI, 2-[1-{indol-3-yl-methylcarboxyl}piperidine-4-yl]-thiazole-4-yl-caboxylic acid (4-isoproxycarboxy-phenyl) amide] | 6.44 | 4.97 | 5.46 | 5.12 | 4.65 | 4.58 | 4.99
O=C(Nc1cc(-c2cccs2)n[nH]1)c1csc(C2CCN(C(=O)N3CCN(c4ccccn4)CC3)CC2)n1 [XXXIII] | 5.49 |  |  | 4.86 | < 4.70 | 4.94 | < 4.70
O=C(NC1CCc2ccccc21)c1csc(C2CCN(C(=O)CC3C=Nc4ccccc43)CC2)n1 (stereo not drawn) [XLVII] | 5.04 |  |  | 5.01 | 4.70 | 4.87 | 4.95
C=CCSc1ncccc1C(=O)N1CCC(c2nc(C(=O)Nc3cc(-c4ccccc4)nn3C)cs2)CC1 [XXXI] | 6.30 |  |  | 5.45 | 4.98 | 4.69 | 4.99
COc1ccc(NC(=O)c2csc(C3CCN(C(=O)NC4C=C(c5ccccc5)N=N4)CC3)n2)cn1 (stereo not drawn) [XIII] | 5.28 |  |  | 5.05 | < 4.70 | 5.00 | 4.91
COc1ccc(C(=O)N2CCC(c3nc(C(=O)NC4C=C(c5ccccc5)N=N4)cs3)CC2)c(OC)c1OC (stereo not drawn) [XX] | 5.27 |  |  | 5.11 | < 4.70 | 4.99 | 4.71
COc1ccc(CNC(=O)c2csc(C3CCN(C(=O)CC4C=Nc5ccccc54)CC3)n2)cc1OC (stereo not drawn) [IV] | 5.42 |  |  | 5.12 | < 4.70 | 4.99 | < 4.70
O=C(Nc1ccc2ncccc2c1)c1csc(C2CCN(C(=O)CC3C=Nc4ccccc43)CC2)n1 (stereo not drawn) [III] | 5.86 |  |  | 5.70 | 5.03 | 5.40 | 5.15
